Laboratory results reported in patent US20070054353A1, “Nuclear receptor transcriptional corepressor and uses thereof” (priority 2002, published 2007).

Experiments:
HDAC6 = test: ERα-dependent CAT reporter with LCoR and HDAC6 cotransfection in MCF-7 cells; type: cell-based, human; settings: estradiol 10 nM, TSA 500 nM, trapoxin 50 nM
Protocol: All cells were cultured under the recommended conditions. For immunocytochemistry, COS-7 cells grown on collagen IV-treated microscope slides in 6-well plates in DMEM, supplemented with 10% FBS were transfected in medium without serum with 12.5 μl of lipofectamine 2000 (Invitrogen, Burlington, Ont.) containing 1 μg each of pSG5/LCoR and HA-Flag-HDAC6/pcDNA3. Medium was replaced 24 h after transfection and cells were prepared for immunocytochemistry after 48 h as described below. For immunoprecipitation of tagged proteins, MCF-7 cells in 100 mm dishes were transfected with 10 μl of lipofectamine containing 10 μg of pSG5 vectors containing Flag-LCoR, Flag-m1, Flag-m2 or Flag-m1+2. For analysis of the effects of HDACs 3 or 6 on LCoR corepression, COS-7 cells (60-70% confluent) grown in DMEM without phenol red, supplemented with 10% FBS on 6-well plates were transfected in medium without serum with lipofectamine 2000 (Invitrogen, Burlington, Ontario, Canada) with 100 ng of ERα expression vectors as indicated, 300 ng of LCoR/pSG5, 300 ng of HA-HDAC3/pCDNA3.1 or […], 250 ng of ERE3-TATA-CAT reporter plasmid, 250 ng of internal control vector pCMV-βgal, and pBluescript carrier DNA to 4 μg. Medium was replaced 18 hr after transfection by a medium containing charcoal-stripped serum and ligand (10 nM) for 30 hr, as indicated. […]

PR = molecular target: T1, PR (Homo sapiens, UniProt P06401); test: Transient transfection luciferase reporter, PR transactivation in COS-7 cells; type: cell-based; settings: TSA 3 μM, COS-7 cells
T1 construct: expressed in transfected cells; host or cells: COS-7
T1 sequence (P06401 1-933): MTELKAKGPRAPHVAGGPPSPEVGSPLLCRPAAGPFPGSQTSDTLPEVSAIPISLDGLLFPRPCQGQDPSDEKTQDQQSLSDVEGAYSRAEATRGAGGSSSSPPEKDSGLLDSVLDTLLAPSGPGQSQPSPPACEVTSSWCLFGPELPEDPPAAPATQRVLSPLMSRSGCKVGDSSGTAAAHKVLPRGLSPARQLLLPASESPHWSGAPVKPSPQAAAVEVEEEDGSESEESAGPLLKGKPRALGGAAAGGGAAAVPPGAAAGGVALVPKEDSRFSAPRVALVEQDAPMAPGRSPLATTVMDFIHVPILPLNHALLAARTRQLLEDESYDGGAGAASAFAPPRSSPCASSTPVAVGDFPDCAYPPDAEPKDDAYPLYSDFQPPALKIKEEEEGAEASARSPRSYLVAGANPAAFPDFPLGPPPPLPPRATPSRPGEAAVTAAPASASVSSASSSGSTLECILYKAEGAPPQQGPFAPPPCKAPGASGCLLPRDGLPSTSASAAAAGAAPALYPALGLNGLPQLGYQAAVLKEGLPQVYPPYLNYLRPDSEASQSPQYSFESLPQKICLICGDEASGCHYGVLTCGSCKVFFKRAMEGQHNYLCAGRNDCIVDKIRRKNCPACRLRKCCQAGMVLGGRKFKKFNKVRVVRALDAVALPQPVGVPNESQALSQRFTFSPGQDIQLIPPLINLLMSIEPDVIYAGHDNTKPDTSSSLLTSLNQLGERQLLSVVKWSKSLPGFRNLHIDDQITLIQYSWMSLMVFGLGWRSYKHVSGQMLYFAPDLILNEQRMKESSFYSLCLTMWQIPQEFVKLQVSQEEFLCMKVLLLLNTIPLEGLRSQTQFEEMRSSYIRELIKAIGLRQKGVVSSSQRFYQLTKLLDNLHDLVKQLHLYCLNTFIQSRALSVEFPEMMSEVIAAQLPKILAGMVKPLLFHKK
Protocol: All cell lines were cultured under the recommended conditions. COS-7 cells grown in […] in DMEM without phenol red, supplemented with 10% FBS were transfected in medium without serum with lipofectamine 2000 (Invitrogen, Burlington, Ont.) with 100 ng of nuclear receptor expression vectors as indicated, 200 ng of TIF-2 or TIF-2.1, as indicated, 250 ng of reporter plasmid, 250 ng of infemal control vector pCMV-βgal, and various concentrations of LCoR/pSG5 or LCoR-LSKAA/pSG5 expression vectors and pSG5 carrier. Medium was replaced 24 h after transfection by a medium containing charcoal-stripped serum and ligand (100 nM) and TSA (3 μM) for 18 h, as indicated. Cells were harvested in 200 […] of reporter lysis buffer (Promega).
COS-7 cells were cotransfected with expression vectors for ERα HEG0 (A and C) or GR (D) or PR (F) or VDR (H), ERE3-TATA-pXP2 (A and C), GRE5/pXP2 (D and F) or VDRE3tk/pXP2 (H) luciferase reporter vectors, pCMV-β-gal as internal control, and LCoR/pSG5 or LSKAA/pSG5 expression vectors as indicated. Cells were treated with 10^−7M of hormones (solid bars) or vehicle (open bars). Normalized luciferase activities (RLU) are the means±SEM from at least 3 experiments. […] Cells were transfected as in FIG. 5A with LCoR, TIF-2 or TIF2.1 as indicated. […]

CC(/C=C/C(=O)NO)=C\[C@@H](C)C(=O)c1ccc(N(C)C)cc1 [TSA, trichostatin A]
effect on HDAC6 repression / enhancement of LCoR corepression of ERα transactivation (HDAC6): abolished
effect on LCoR repression of PR function (PR): little or no effect
